Experimental data taken from ChEMBL document CHEMBL1275440, “In vitro activity of telavancin against resistant gram-positive bacteria” (2008).
Active and inactive are the calls of the source.

What was measured:
Streptococcus pyogenes [1] = assay: Antibacterial activity against Streptococcus pyogenes MED 2040 by broth microdilution method; format: functional
[2] = test system: Staphylococcus auricularis; assay: Antibacterial activity against methicillin resistant coagulase-negative Staphylococcus auricularis clinical isolate by broth microdilution method; format: functional
[3] = test system: Staphylococcus haemolyticus; assay: Antibacterial activity against methicillin resistant coagulase-negative Staphylococcus haemolyticus clinical isolate by broth microdilution method; format: functional
Staphylococcus aureus [4] = assay: Antibacterial activity against methicillin resistant Staphylococcus aureus clinical isolate assessed as susceptibility level by broth microdilution method; format: functional
[5] = test system: Staphylococcus saprophyticus; assay: Antibacterial activity against methicillin resistant coagulase-negative Staphylococcus saprophyticus clinical isolate by broth microdilution method; format: functional
Enterococcus faecium [6] = assay: Antibacterial activity against vancomycin resistant Enterococcus faecium VanA clinical isolate by broth microdilution method; format: functional
Streptococcus pyogenes [7] = assay: Antibacterial activity against Streptococcus pyogenes group A clinical isolate assessed as susceptibility level by broth microdilution method; format: functional
[8] = test system: Streptococcus intermedius; assay: Antibacterial activity against Streptococcus intermedius clinical isolate by broth microdilution method; format: functional
[9] = test system: Staphylococcus epidermidis; assay: Antibacterial activity against methicillin resistant Staphylococcus epidermidis ATCC 35984 by broth microdilution method; format: functional
[10] = Antibacterial activity against methicillin resistant coagulase-negative Staphylococcus hominis subsp. novobiosepticus clinical isolate assessed as susceptibility level by broth microdilution method; format: functional
Streptococcus mitis [11] = assay: Antibacterial activity against Streptococcus mitis clinical isolate by broth microdilution method; format: functional
Enterococcus faecalis [12] = assay: Antibacterial activity against vancomycin resistant Enterococcus faecalis VanB clinical isolate assessed as susceptibility level by broth microdilution method; format: functional
Streptococcus agalactiae [13] = assay: Antibacterial activity against Streptococcus agalactiae group B clinical isolate assessed as susceptibility level by broth microdilution method; format: functional
Streptococcus pneumoniae [14] = assay: Antibacterial activity against multidrug-resistant Streptococcus pneumoniae clinical isolate by broth microdilution method; format: functional
Streptococcus viridans [15] = assay: Antibacterial activity against Streptococcus viridans clinical isolate by broth microdilution method; format: functional
[16] = test system: Streptococcus intermedius; assay: Antibacterial activity against Streptococcus intermedius clinical isolate assessed as susceptibility level by broth microdilution method; format: functional
[17] = Antibacterial activity against methicillin resistant coagulase-negative Staphylococcus hominis subsp. novobiosepticus clinical isolate by broth microdilution method; format: functional
[18] = test system: Staphylococcus haemolyticus; assay: Antibacterial activity against methicillin resistant coagulase-negative Staphylococcus haemolyticus clinical isolate assessed as susceptibility level by broth microdilution method; format: functional
Streptococcus agalactiae [19] = assay: Antibacterial activity against Streptococcus agalactiae group B clinical isolate by broth microdilution method; format: functional
Staphylococcus capitis [20] = assay: Antibacterial activity against methicillin resistant coagulase-negative Staphylococcus capitis clinical isolate assessed as susceptibility level by broth microdilution method; format: functional
Enterococcus faecalis [21] = test system: Enterococcus faecalis
Staphylococcus aureus [22] = assay: Antibacterial activity against methicillin resistant Staphylococcus aureus clinical isolate by broth microdilution method; format: functional; conditions: for MIC50 / MIC90: Staphylococcus aureus
[23] = test system: Streptococcus constellatus; assay: Antibacterial activity against Streptococcus constellatus clinical isolate by broth microdilution method; format: functional
Streptococcus oralis [24] = assay: Antibacterial activity against Streptococcus oralis clinical isolate assessed as susceptibility level by broth microdilution method; format: functional
Staphylococcus capitis [25] = assay: Antibacterial activity against methicillin resistant coagulase-negative Staphylococcus capitis clinical isolate by broth microdilution method; format: functional
Streptococcus agalactiae [26] = assay: Antibacterial activity against Streptococcus agalactiae MED 2038 by broth microdilution method; format: functional
Streptococcus mitis [27] = assay: Antibacterial activity against Streptococcus mitis clinical isolate assessed as susceptibility level by broth microdilution method; format: functional
Streptococcus viridans [28] = assay: Antibacterial activity against Streptococcus viridans clinical isolate assessed as susceptibility level by broth microdilution method; format: functional
[29] = test system: Staphylococcus saprophyticus; assay: Antibacterial activity against methicillin resistant coagulase-negative Staphylococcus saprophyticus clinical isolate assessed as susceptibility level by broth microdilution method; format: functional
Streptococcus oralis [30] = assay: Antibacterial activity against Streptococcus oralis clinical isolate by broth microdilution method; format: functional
Streptococcus pneumoniae [31] = assay: Antibacterial activity against penicillin intermediate Streptococcus pneumoniae clinical isolate assessed as susceptibility level by broth microdilution method; format: functional
[32] = test system: Staphylococcus epidermidis; assay: Antibacterial activity against methicillin resistant Staphylococcus epidermidis clinical isolate assessed as susceptibility level by broth microdilution method; format: functional
Enterococcus faecalis [33] = assay: Antibacterial activity against vancomycin resistant Enterococcus faecalis VanB clinical isolate by broth microdilution method; format: functional
Streptococcus pneumoniae [34] = assay: Antibacterial activity against penicillin intermediate Streptococcus pneumoniae clinical isolate by broth microdilution method; format: functional
[35] = test system: Staphylococcus auricularis; assay: Antibacterial activity against methicillin resistant coagulase-negative Staphylococcus auricularis clinical isolate assessed as susceptibility level by broth microdilution method; format: functional
[36] = test system: Staphylococcus epidermidis; assay: Antibacterial activity against methicillin resistant Staphylococcus epidermidis clinical isolate by broth microdilution method; format: functional
Enterococcus faecium [37] = assay: Antibacterial activity against vancomycin resistant Enterococcus faecium VanB clinical isolate assessed as susceptibility level by broth microdilution method; format: functional
Streptococcus pneumoniae [38] = assay: Antibacterial activity against penicillin resistant Streptococcus pneumoniae clinical isolate by broth microdilution method; format: functional
Enterococcus faecium [39] = assay: Antibacterial activity against vancomycin resistant Enterococcus faecium VanB clinical isolate by broth microdilution method; format: functional
Enterococcus faecium [40] = assay: Antibacterial activity against vancomycin resistant Enterococcus faecium VanA clinical isolate assessed as susceptibility level by broth microdilution method; format: functional
[41] = test system: Streptococcus constellatus; assay: Antibacterial activity against Streptococcus constellatus clinical isolate assessed as susceptibility level by broth microdilution method; format: functional
Streptococcus pyogenes [42] = assay: Antibacterial activity against Streptococcus pyogenes group A clinical isolate by broth microdilution method; format: functional
Enterococcus faecalis [43] = assay: Antibacterial activity against vancomycin resistant Enterococcus faecalis VanA clinical isolate assessed as susceptibility level by broth microdilution method; format: functional
Enterococcus faecalis [44] = assay: Antibacterial activity against vancomycin resistant Enterococcus faecalis VanA clinical isolate by broth microdilution method; format: functional
Streptococcus pneumoniae [45] = assay: Antibacterial activity against penicillin resistant Streptococcus pneumoniae clinical isolate assessed as susceptibility level by broth microdilution method; format: functional
Streptococcus pneumoniae [46] = assay: Antibacterial activity against multidrug-resistant Streptococcus pneumoniae clinical isolate assessed as susceptibility level by broth microdilution method; format: functional
Streptococcus pneumoniae [47] = assay: Antibacterial activity against multidrug resistant Streptococcus pneumoniae MED 1090 by broth microdilution method; format: functional

CC(=O)NC[C@H]1CN(c2ccc(N3CCOCC3)c(F)c2)C(=O)O1 [LINEZOLID]
4 µg/mL: MIC90 (Staphylococcus aureus [22])
98%: Activity (Streptococcus pyogenes [7])
100%: Activity [10] | Activity (Enterococcus faecalis [12]) | Activity (Streptococcus agalactiae [13]) | Activity [16] | Activity [18] | Activity (Staphylococcus capitis [20]) | Activity (Streptococcus oralis [24]) | Activity (Streptococcus mitis [27]) | Activity (Streptococcus viridans [28]) | Activity [29] | Activity (Streptococcus pneumoniae [31]) | Activity [32] | Activity [35] | Activity [41]
0.5 µg/mL: MIC [8] | MIC (Streptococcus mitis [11]) | MIC (Streptococcus viridans [15]) | MIC [23] | MIC (Streptococcus oralis [30]) | MIC (Enterococcus faecalis [33])
2 µg/mL: MIC90 [2] | MIC90 [3] | MIC90 [5] | MIC50 (Enterococcus faecium [6]) | MIC90 (Enterococcus faecium [6]) | MIC [9] | MIC90 [17] | MIC50 (Staphylococcus aureus [22]) | MIC90 (Staphylococcus capitis [25]) | MIC50 (Enterococcus faecium [39]) | MIC90 (Enterococcus faecium [39])
99%: Activity (Staphylococcus aureus [4]) | Activity (Staphylococcus aureus [22]) | Activity (Enterococcus faecium [40])
inactive: MIC50 [8] | MIC90 [8] | MIC50 (Streptococcus mitis [11]) | MIC90 (Streptococcus mitis [11]) | MIC50 (Streptococcus viridans [15]) | MIC90 (Streptococcus viridans [15]) | MIC50 (Enterococcus faecalis [21]) | MIC90 (Enterococcus faecalis [21]) | MIC50 [23] | MIC90 [23] | MIC50 (Streptococcus oralis [30]) | MIC90 (Streptococcus oralis [30])
96%: Activity (Enterococcus faecium [37])
1 µg/mL: MIC (Streptococcus pyogenes [1]) | MIC50 [2] | MIC50 [3] | MIC50 [5] | MIC50 (Streptococcus pneumoniae [14]) | MIC90 (Streptococcus pneumoniae [14]) | MIC50 [17] | MIC50 (Streptococcus agalactiae [19]) | MIC90 (Streptococcus agalactiae [19]) | MIC50 (Staphylococcus capitis [25]) | MIC (Streptococcus agalactiae [26]) | MIC50 (Streptococcus pneumoniae [34]) | MIC90 (Streptococcus pneumoniae [34]) | MIC50 [36] | MIC90 [36] | MIC50 (Streptococcus pneumoniae [38]) | MIC90 (Streptococcus pneumoniae [38])

CN[C@H](CC(C)C)C(=O)N[C@H]1C(=O)N[C@@H](CC(N)=O)C(=O)N[C@H]2C(=O)N[C@H]3C(=O)N[C@H](C(=O)N[C@H](C(=O)O)c4cc(O)cc(O)c4-c4cc3ccc4O)[C@H](O)c3ccc(c(Cl)c3)Oc3cc2cc(c3O[C@@H]2O[C@H](CO)[C@@H](O)[C@H](O)[C@H]2O[C@H]2C[C@](C)(N)[C@H](O)[C@H](C)O2)Oc2ccc(cc2Cl)[C@H]1O [VANCOMYCIN]
2 µg/mL: MIC50 [2] | MIC90 [2] | MIC50 [3] | MIC90 [3] | MIC50 [5] | MIC90 [5] | MIC50 [17] | MIC90 [17] | MIC50 (Staphylococcus capitis [25]) | MIC90 (Staphylococcus capitis [25])
0.5 µg/mL: MIC90 (Streptococcus pyogenes [42]) | MIC90 (Streptococcus agalactiae [19]) | MIC50 (Staphylococcus aureus [22]) | MIC50 (Streptococcus pneumoniae [34]) | MIC90 (Streptococcus pneumoniae [34]) | MIC [36]
0%: Activity (Enterococcus faecalis [12]) | Percent of isolates susceptible (Enterococcus faecalis [43]) | Activity (Enterococcus faecium [37]) | Activity (Enterococcus faecium [40])
inactive: MIC50 [8] | MIC90 [8] | MIC50 (Streptococcus mitis [11]) | MIC90 (Streptococcus mitis [11]) | MIC50 (Streptococcus viridans [15]) | MIC90 (Streptococcus viridans [15]) | MIC50 (Enterococcus faecalis [21]) | MIC90 (Enterococcus faecalis [21]) | MIC50 [23] | MIC90 [23] | MIC50 (Streptococcus oralis [30]) | MIC90 (Streptococcus oralis [30])
512 µg/mL: MIC50 (Enterococcus faecium [6]) | MIC50 (Enterococcus faecalis [44]) | MIC50 (Enterococcus faecium [39])
98%: Activity (Streptococcus pyogenes [7])
32 µg/mL: MIC (Enterococcus faecalis [33])
0.25 µg/mL: MIC (Streptococcus pyogenes [1]) | MIC [8] | MIC (Streptococcus mitis [11]) | MIC50 (Streptococcus pneumoniae [14]) | MIC90 (Streptococcus pneumoniae [14]) | MIC50 (Streptococcus pyogenes [42]) | MIC (Streptococcus viridans [15]) | MIC (Streptococcus agalactiae [19]) | MIC50 (Streptococcus agalactiae [19]) | MIC [23] | MIC (Streptococcus agalactiae [26]) | MIC (Streptococcus oralis [30]) | MIC50 (Streptococcus pneumoniae [38]) | MIC90 (Streptococcus pneumoniae [38]) | MIC (Streptococcus pneumoniae [47])
1 µg/mL: MIC90 (Staphylococcus aureus [22])
100%: Activity (Staphylococcus aureus [4]) | Activity [10] | Activity (Streptococcus agalactiae [13]) | Activity [16] | Activity [18] | Activity (Streptococcus pneumoniae [45]) | Activity (Staphylococcus capitis [20]) | Activity (Staphylococcus aureus [22]) | Activity (Streptococcus pneumoniae [46]) | Activity (Streptococcus oralis [24]) | Activity (Streptococcus mitis [27]) | Activity (Streptococcus viridans [28]) | Activity [29] | Activity (Streptococcus pneumoniae [31]) | Activity [32] | Activity [35] | Activity [41]
> 512 µg/mL: MIC90 (Enterococcus faecium [6]) | MIC90 (Enterococcus faecalis [44]) | MIC90 (Enterococcus faecium [39])
